Key:
[1] = system: HIV; assay: Activity against HIV and other sexually transmitted diseases; conditions: by comparison with dextrin 2- and 6-sulphates
[2] = Spermicidal activity

Substance | activity against HIV and other sexually transmitted diseases (STDs) [1] | spermicidal activity [2]
Dextrin 3-sulphate [Example 1] | relatively poor activity | –
dextrin sulphate | – | little or no spermicidal activity
